# Source: US20230033224A1, “CICLESONIDE FOR AMELIORATING QUALITY OF LIFE (QOL) IN EQUINES” (Boehringer Ingelheim Vetmedica GmbH, priority 2020, published 2023)
# System: client-owned horses
# Assay: Owner assessment of change in quality of life (QOL) in a randomized, double-blinded, placebo-controlled clinical study
# Type: in vivo, horse
# From the text: The amelioration of the QOL in equines can be measured by an assessment, which can be performed for example by the owner or the veterinarian or by an animal care taker or by any other person, preferably by the owner. The owners of the horses are asked to assess the quality of life of their horses over a certain period of time, e.g. several days, such as 10, 14 or 21 days, compared to a reference time point, e.g. day 0. For assessment of QOL the owner is asked to consider certain QOL parameters such as attitude, energy level, human interactions, general behavior using a rating scheme. This assessment preferably relates to a certain period of time such as for example the last 24 hours in comparison to a previous point in time for example day 0. One possible rating scheme is to ask whether QOL has improved, stayed the same or worsened compared to day 0.
# The study is conducted as a multicenter prospective, randomized, double-blinded, placebo-controlled clinical study with parallel group design according to Good Clinical Practice (GCP) guidelines with client-owned horses.
# Horses are examined before (Day 0) and at the end of treatment with the study drug (Day 10±1) by the study investigators. Physical examination, efficacy and QOL assessment, as well as blood sample collection is performed during the visits. The owners of included horses are also contacted by telephone on Day 5. […]
smiles,measurement,setting,value
"CC(C)C(=O)OCC(=O)[C@@]12O[C@H](C3CCCCC3)OC1CC1C3CCC4=CC(=O)C=C[C@]4(C)C3[C@@H](O)C[C@@]12C (stereo partly drawn) [ciclosenide, (1 ip,16a)-16,17-[[(R)-Cyclohexylmethylene]bis(oxy)]-11-hydroxy-21-(2-methyl-1-oxopropoxy)pregna-1,4-diene-3,20-dione]",percentage of owners acknowledging an improvement in their horse's quality of life compared to Day 0,"after 10(±1) days of treatment, 8 actuations twice daily for 5 days, then 12 actuations once daily for 5 days",69.33%
same,percentage of owners reporting that the quality of life of their horse improved compared to Day 0,"after five days of treatment, inhaled via EquiHaler, 8 actuations (343 μg each) twice daily",60.19%
